Experimental data as given in ChEMBL document CHEMBL1201862, “PubChem BioAssay data set” (2004).
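1) Cells in 96-well plates. 2) Compound, 48 h, 5 concentrations. 3) Linear interpolation between surrounding doses. 4) Unreached endpoint = highest concentration. Here, GI50 denotes the concentration required for 50% inhibition of growth.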 Calls of active or inactive are those of the source. Cut-off read from the data, not from the text of the source: active = GI50 up to about 1.1 µM and inactive = higher.

Experiments:
Assay in all cases: growth of human tumour cells (NCI), 48 h
[1] = system: SNB-19
[2] = system: SK-MEL-5
[3] = system: MOLT-4
[4] = system: A498
[5] = system: CAKI-1
[6] = system: SK-MEL-2
[7] = system: COLO 205
[8] = system: A549
[9] = system: SF-268
[10] = system: SF-539
[11] = system: RPMI-8226
[12] = system: HOP-18
[13] = system: DMS-114
[14] = system: LXFL 529
[15] = system: OVCAR-3
[16] = system: Malme-3M
[17] = system: M14
[18] = system: IGROV-1
[19] = system: SNB-78
[20] = system: HL-60
[21] = system: NCI-H226
[22] = system: SK-OV-3
[23] = system: M19-MEL
[24] = system: OVCAR-4
[25] = system: HCT-116
[26] = system: EKVX
[27] = system: UACC-257
[28] = system: KM12
[29] = system: K562
[30] = system: NCI-H522
[31] = system: CCRF-CEM
[32] = system: SNB-75
[33] = system: HOP-62
[34] = system: SK-MEL-28
[35] = system: HCC 2998
[36] = system: TK-10
[37] = system: HT-29
[38] = system: HOP-92
[39] = system: NCI-H23
[40] = system: UACC-62
[41] = system: DLD-1
[42] = system: SF-295
[43] = system: DMS-273
[44] = system: UO-31
[45] = system: SW-620
[46] = system: SR
[47] = system: 786-0
[48] = system: SN12C
[49] = system: OVCAR-8
[50] = system: NCI-H460
[51] = system: ACHN
[52] = system: RXF 393
[53] = system: HCT-15
[54] = system: U-251
[55] = system: KM-20L2
[56] = system: XF498
[57] = system: LOX IMVI
[58] = system: BT-549
[59] = system: MDA-MB-231
[60] = system: MDA-N
[61] = system: MCF7
[62] = system: DU-145
[63] = system: Hs-578T
[64] = system: PC-3
[65] = system: OVCAR-5
[66] = system: MDA-MB-435
[67] = system: T47D

Measured: GI50

O=S1(=O)OCCOS(=O)(=O)C1Cl
inactive: [1] > 100 µM | [2] > 100 µM | [3] > 100 µM | [4] > 100 µM | [5] > 100 µM | [6] > 100 µM | [7] > 100 µM | [8] > 100 µM | [9] > 100 µM | [10] > 100 µM | [11] > 100 µM | [12] > 100 µM | [13] > 100 µM | [14] > 100 µM | [15] > 100 µM | [16] > 100 µM | [17] > 100 µM | [18] > 100 µM | [19] > 100 µM | [20] > 100 µM | [21] > 100 µM | [22] > 100 µM | [23] > 100 µM | [24] > 100 µM | [25] > 100 µM | [26] > 100 µM | [27] > 100 µM | [28] > 100 µM | [29] > 100 µM | [30] > 100 µM | [31] > 100 µM | [32] > 100 µM | [33] > 100 µM | [34] > 100 µM | [35] > 100 µM | [36] > 100 µM | [37] > 100 µM | [38] > 100 µM | [39] > 100 µM | [40] 82.6 µM | [41] > 100 µM | [42] > 100 µM | [43] > 100 µM | [44] > 100 µM | [45] > 100 µM | [46] > 100 µM | [47] > 100 µM | [48] > 100 µM | [49] > 100 µM

[O-][Cl+3]([O-])([O-])O.c1ccc(/N=c2\snc(-c3ccccc3)s2)cc1
> 100 µM: [53]
inactive: [1] > 100 µM | [50] > 100 µM | [2] > 100 µM | [3] > 100 µM | [4] > 100 µM | [5] > 100 µM | [6] > 100 µM | [7] > 100 µM | [8] > 100 µM | [9] > 100 µM | [51] > 100 µM | [10] > 100 µM | [11] > 100 µM | [12] > 100 µM | [13] > 100 µM | [14] > 100 µM | [52] > 100 µM | [16] > 100 µM | [17] > 100 µM | [18] > 100 µM | [19] > 100 µM | [20] > 100 µM | [21] > 100 µM | [22] > 100 µM | [23] > 100 µM | [24] > 100 µM | [25] > 100 µM | [27] > 100 µM | [28] > 100 µM | [29] > 100 µM | [30] > 100 µM | [31] > 100 µM | [32] > 100 µM | [33] > 100 µM | [34] > 100 µM | [35] > 100 µM | [36] > 100 µM | [40] > 100 µM | [41] > 100 µM | [43] > 100 µM | [44] > 100 µM | [45] > 100 µM | [46] > 100 µM | [47] > 100 µM | [54] > 100 µM | [48] > 100 µM | [55] > 100 µM | [49] > 100 µM

COC(=O)CC(C(C(=O)OCc1ccccc1)C(C)O)N1C(=O)OCC1c1ccccc1 (stereo unspecified)
inactive: [1] 75.2 µM | [50] 68.2 µM | [2] 42.3 µM | [3] 29.4 µM | [4] 22.2 µM | [56] 24.1 µM | [6] > 100 µM | [7] 48.4 µM | [8] 44.8 µM | [9] 97.5 µM | [51] 63.2 µM | [10] > 100 µM | [11] 27.6 µM | [13] 46.9 µM | [14] 56.1 µM | [15] 93.5 µM | [52] 95.7 µM | [16] > 100 µM | [17] > 100 µM | [18] 69.3 µM | [20] 34.2 µM | [21] 31.6 µM | [23] 69.2 µM | [24] 84.1 µM | [25] > 100 µM | [26] 62.1 µM | [27] 75.7 µM | [29] 34.4 µM | [31] 49 µM | [32] 20 µM | [33] > 100 µM | [34] > 100 µM | [35] > 100 µM | [36] > 100 µM | [57] > 100 µM | [37] > 100 µM | [39] 60.1 µM | [40] 35.6 µM | [41] 60.4 µM | [42] 45 µM | [43] 66.1 µM | [44] 24.3 µM | [45] > 100 µM | [46] 38.1 µM | [47] > 100 µM | [54] 83 µM | [48] > 100 µM | [55] 83.8 µM | [49] 91.6 µM
> 100 µM: [53]

COc1ccc2[nH]c3c4c(ccc3c2c1)C(=O)C=CC4=O
4.42 µM: [53]
active: [3] 0.448 µM | [20] 0.439 µM | [31] 0.324 µM | [46] 0.333 µM
inactive: [1] 40.5 µM | [50] 24.8 µM | [2] 18.9 µM | [4] 31.3 µM | [58] 27.8 µM | [5] 9.25 µM | [6] 13.8 µM | [7] 5.3 µM | [8] 28.6 µM | [9] 17.1 µM | [51] 4.76 µM | [59] 17.4 µM | [10] 15.7 µM | [11] 2.08 µM | [60] 16.2 µM | [12] 10.8 µM | [13] 11.8 µM | [14] 5.02 µM | [15] 8.36 µM | [52] 2.48 µM | [16] 7.73 µM | [61] 10.8 µM | [17] 10 µM | [18] 16 µM | [19] 16.3 µM | [21] 21.6 µM | [22] 43.4 µM | [23] 14.3 µM | [24] 15 µM | [25] 3.62 µM | [26] 16.4 µM | [27] 10 µM | [28] 21.6 µM | [29] 1.53 µM | [62] 34.8 µM | [30] 1.74 µM | [63] 24.3 µM | [64] 18.7 µM | [32] 18.8 µM | [33] 51.2 µM | [34] 8.2 µM | [35] 22.5 µM | [36] 14.6 µM | [57] 9.31 µM | [37] 20.3 µM | [65] 20.4 µM | [38] 3.34 µM | [39] 12.7 µM | [40] 16.7 µM | [41] 2.54 µM | [42] 24.7 µM | [43] 16.2 µM | [44] 14.8 µM | [45] 2.39 µM | [66] 25.9 µM | [47] 11.4 µM | [67] 2.64 µM | [54] 17.1 µM | [48] 11 µM | [55] 18.9 µM | [49] 5.22 µM

COC(=O)/C(=N/NC(C)(C)C)C(C(=O)OC)C(=O)C(=O)Nc1nc2ccc([N+](=O)[O-])cc2s1 (stereo unspecified)
inactive: [1] > 100 µM | [50] > 100 µM | [2] > 100 µM | [3] > 100 µM | [4] 23.6 µM | [5] > 100 µM | [56] > 100 µM | [6] > 100 µM | [7] > 100 µM | [8] > 100 µM | [9] > 100 µM | [51] > 100 µM | [10] > 100 µM | [11] > 100 µM | [13] > 100 µM | [14] > 100 µM | [15] > 100 µM | [16] > 100 µM | [17] > 100 µM | [18] > 100 µM | [19] > 100 µM | [20] > 100 µM | [21] > 100 µM | [22] > 100 µM | [23] > 100 µM | [24] > 100 µM | [25] > 100 µM | [26] > 100 µM | [27] > 100 µM | [28] > 100 µM | [29] > 100 µM | [30] > 100 µM | [31] > 100 µM | [33] > 100 µM | [34] > 100 µM | [35] > 100 µM | [36] > 100 µM | [57] > 100 µM | [37] > 100 µM | [65] > 100 µM | [39] > 100 µM | [40] > 100 µM | [42] > 100 µM | [44] > 100 µM | [45] > 100 µM | [46] > 100 µM | [47] > 100 µM | [54] > 100 µM | [48] > 100 µM | [55] > 100 µM | [49] > 100 µM
> 100 µM: [53]
